Reference: US10772876B2, “Enhancers of Notch signaling and the use thereof in the treatment of cancers and malignancies medicable by upregulation of Notch” (XENIOPRO GmbH, priority 2016, dated 2020)
Entries after “also recorded” stand apart in the source; their conditions may differ.

Assays:
[1] = system: Notch1 full-length receptor; assay: Notch1 full-length receptor driven luciferase reporter assay (HeLa co-culture with DLL4 ligand expressing HeLa cells); format: cell-based; settings: for Notch signaling relative to the DMSO control: control treatments, FIG. 1
Procedure: As used herein, the term “enhancing Notch signaling” refers to an effect on a cellular Notch-driven luciferase reporter assay, by which the Notch signaling enhancing properties of the compounds of the invention are determined. The Notch-driven luciferase reporter assay consists of HeLa cells engineered to express the Notch1 full length receptor, and to harbor a CSL-driven firefly luciferase expression construct as well as a Notch independent Renilla luciferase construct for the purpose of normalisation. These cells are co-cultured with engineered HeLa cells expressing the Notch ligand D114 to induce Notch signaling, thus to induce the expression of the firefly luciferase enzyme. The intensity of a luciferase-driven reporter signal is considered as a measure for Notch signaling.
A compound is considered as having an effect of enhancing Notch signaling if said compound results relative to DMSO in ≥1.5-fold increase, preferably in ≥2.0-fold increase, more preferably in ≥2.5-fold increase and most preferably in ≥3.0-fold increase of the Luciferase-driven reporter signal in the frame of the named Notch-dependent luciferase reporter assay.
FIG. 1. […] The indicated compounds were tested at 10 μM concentration in a Notch-driven luciferase reporter assay. HeLa cells had been engineered to express the Notch1 full-length receptor, the firefly luciferase (expression dependent on Notch signaling) and the renilla luciferase (expression independent on Notch signaling). Cells were co-cultured in a 96 well-plate with DLL4 ligand expressing HeLa cells to induce Notch signaling and simultaneously treated with DMSO or indicated compounds for 20 h. Notch signaling activation was then quantified by measuring luciferase-dependent luminescence intensities upon treatment with appropriate substrates. The firefly values were normalized against the renilla values to obtain the relative luminescence intensities (represented by the bars).
(§1) A brief description of the assay is given in the description of FIG. 1. If not stated differently, all assays were performed using a Notch1 full-length receptor driven reporter system. Values are normalized against DMSO. a) V126 (black rhombi) was tested at the indicated concentrations. […] The control readouts for DMSO (black), CB103 (white), V126 at 10 μM and V126 at 1 μM (diagonal lines) were taken as usual after incubation for 20 h. c) V126 was tested in combination with an equimolar amount of the y-secretase inhibitor DAPT or the Notch inhibitor CB103 at 10 μM concentration each. d) V126 and the indicated compounds were tested at 10 μM in a luciferase reporter assay driven by the Notch2 receptor isoform. e) V126 and the indicated compounds were tested at 10 μM in a luciferase assay driven by the constitutively active form of the Notch1 receptor (N1ICD, Notch1 intracellular domain).

luciferase enzyme = target: T1, luciferase enzyme (Photinus pyralis, UniProt P08659); assay: Direct influence on luciferase enzyme activity (treatment 5 min prior to readout of the Notch reporter assay); format: cell-based; settings: 10 μM and 1 μM, 5 min prior to the readout, FIG. 2b
T1 construct: expressed in transfected cells; host or cells: HeLa cells engineered with Notch1 full-length receptor, firefly and Renilla luciferase constructs, co-cultured with DLL4-expressing HeLa cells
Procedure: as §1
(§2) To rule out that V126 is directly enhancing the activity of the luciferase enzyme, the Notch reporter assay was challenged by applying V126 treatment immediately prior to the readout. […] Moreover, the Notch-enhancing activity of V126 could be partially and completely rescued by combinational equimolar treatment with the γ-secretase inhibitor DAPT or the Notch inhibitor CB103, respectively, further confirming the ability of V126 to upregulate Notch signaling (FIG. 2c).

[2] = system: Notch2 full-length receptor; assay: Luciferase reporter assay driven by the Notch2 receptor isoform (N2FL); format: cell-based; settings: 10 μM, FIG. 2d
Procedure: as §1, §2

[3] = system: N1ICD, Notch1 intracellular domain; assay: Luciferase assay driven by the constitutively active form of the Notch1 receptor (N1ICD); format: cell-based; settings: 10 μM, FIG. 2e
Procedure: as §1, §2

SCC13 cells = assay: Involucrin protein expression in SCC13 cells (Western Blot); format: cell-based, human; settings: 10 μM, 48 h, β-actin as loading control
Procedure: Cells were treated with DMSO or V126 at a concentration of 10 μM for 48 h. Total cell lysates were applied on Western Blot analysis using β-actin as loading control.
Notch activation in the skin is known to drive differentiation of keratinocytes resulting in the induction of differentiation markers such as involucrin (C. Nowell, Cold Spring Harb Perspect Med. 2013, 3, 12), (G. P. Dotto, Oncogene 2008, 27, 5115-5123). […] In the spleen, marginal zone B-cells (MZBs) and follicular B-cells (FoBs) are the two main types of mature B-cells, both of which develop from the same precursor cells, namely the transitional B-cells (TBs). Notch2 signaling was reported to play a crucial role in the development of MZBs (S. Pillai, Nat. Rev. Immunol. 2009, 9, 767-777) and increased Notch2 signaling in the spleen leads to an expansion of the MZB compartment (F. Hampel, Blood 2011, 118, 24, 6321-6331). In contrast, the development of FoBs is not dependent on Notch signaling. To evaluate the effect of V126 in vivo, C57BL/6N mice were injected intraperitoneally with 25 mg/kg V126 once a day for one week. The impact of V126 on the different B-cell compartments in these mice was analyzed by flow cytometry on splenocytes, showing that V126 was capable to double the number of MZBs as compared to the control, whereas the FoB numbers were not affected (FIG. 4).

[4] = system: splenic marginal zone B-cells (MZB); assay: Splenic B-cell compartments in mice by flow cytometry; format: in vivo, C57BL/6N mice; settings: 25 mg/kg intraperitoneal once a day for one week
Procedure: C57BL/6N mice were treated with 25 mg/kg V126 by intraperitoneal injection once a day for one week. a) Spleen cells were analyzed by flow cytometry. Shown are two representative plots of control (Ctrl., n=5) and V126 (n=4) treatments displaying the B220+cell (total B-cell) population. The gates encircle the respective MZB, FoB, and TB fractions with the corresponding numbers indicating the relative proportions (in percentage) of cells out of the B220+population. b) The bar diagrams quantify the relative MZB percentages from a) (left), and the recalculated total numbers of splenic MZBs (right). FoBs: Follicular B-cells, TBs: Transitional B-cells, see text.
Notch activation in the skin is known to drive differentiation of keratinocytes resulting in the induction of differentiation markers such as involucrin (C. Nowell, Cold Spring Harb Perspect Med. 2013, 3, 12), (G. P. Dotto, Oncogene 2008, 27, 5115-5123). […] In the spleen, marginal zone B-cells (MZBs) and follicular B-cells (FoBs) are the two main types of mature B-cells, both of which develop from the same precursor cells, namely the transitional B-cells (TBs). […] The impact of V126 on the different B-cell compartments in these mice was analyzed by flow cytometry on splenocytes, showing that V126 was capable to double the number of MZBs as compared to the control, whereas the FoB numbers were not affected (FIG. 4).

CD4 T cells = assay: IFN-γ production and secretion of CD4 T cells under Th1 polarizing conditions; format: cell-based, mice; settings: 10 μM, 96 hours, intracellular IFN-γ and Elisa of culture supernatants
Procedure: FIGS. 5A-5C The Notch signaling enhancing compound V126 induces increased IFNy production and secretion in vitro. CD4 T cells isolated from naive CS7B/6 mice were cultured on plate bound α-CD3/α-CD28 (both 0.25μg/m1) under Th1 polarizing conditions (rlL-12, (5ng/ml) and anti-IL-4 (clone:11B11; […])) in the presence of DMSO, DAPT as y-secretase inhibitor and V126 at 10 μM. 96 hours after initiation of the culture, intracellular IFN-y levels a) and CD25 surface expression b) were assessed on PMA/lonomycin stimulated CD4 T cells. c) IFN-y cytokine levels were assessed in culture supernatants by Elisa under the same conditions as in a) and b).

T1 sequence (P08659 whole entry): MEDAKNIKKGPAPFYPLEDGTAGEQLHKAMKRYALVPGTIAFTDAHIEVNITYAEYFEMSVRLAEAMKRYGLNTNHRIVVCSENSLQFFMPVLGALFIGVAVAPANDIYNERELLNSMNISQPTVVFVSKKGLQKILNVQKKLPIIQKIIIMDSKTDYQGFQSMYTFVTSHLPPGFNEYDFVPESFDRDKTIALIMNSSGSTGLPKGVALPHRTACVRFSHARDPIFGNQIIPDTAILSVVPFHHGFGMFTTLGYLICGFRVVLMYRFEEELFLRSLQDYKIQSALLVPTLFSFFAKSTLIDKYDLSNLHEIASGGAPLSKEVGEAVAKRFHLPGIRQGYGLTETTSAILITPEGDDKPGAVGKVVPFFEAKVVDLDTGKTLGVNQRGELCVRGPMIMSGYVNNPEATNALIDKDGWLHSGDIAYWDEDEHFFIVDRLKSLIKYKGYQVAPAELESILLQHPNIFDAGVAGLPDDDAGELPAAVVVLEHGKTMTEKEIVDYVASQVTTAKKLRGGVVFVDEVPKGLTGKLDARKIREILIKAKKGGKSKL

SMILES: CC(C)(C)c1ccc(Oc2ccc(N)cn2)cc1 [CB103, reference compound]
- Notch signaling relative to the DMSO control ([1]; 20 h): decrease in Notch signaling

SMILES: CCCC(CCC)C(=O)O [valproic acid, reference compound]
- effect on Notch signaling ([1]; concentrations up to 40 μM, FIG. 2a): did not show any effect

SMILES: C[C@H](NC(=O)Cc1cc(F)cc(F)c1)C(=O)N[C@H](C(=O)OC(C)(C)C)c1ccccc1 [DAPT, reference compound]
- Notch signaling relative to the DMSO control ([1]; 20 h): decrease in Notch signaling

SMILES: CC(C)(C)c1ccc(Oc2ccc(C(=O)O)cc2)cc1 [V126, 4-(4-(tert-Butyl)phenoxy)benzoic acid]
- luciferase values after treatment for 20 h in the very same readout ([1]; 10 μM and 1 μM, 20 h, FIG. 2b): expected upregulation
- rescue of the Notch-enhancing activity by combinational equimolar treatment with CB103 ([1]; V126 plus Notch inhibitor CB103, 10 μM each, FIG. 2c): completely
- rescue of the Notch-enhancing activity by combinational equimolar treatment with DAPT ([1]; V126 plus γ-secretase inhibitor DAPT, 10 μM each, FIG. 2c): partially
- enhancement of Notch signaling ([1]; concentration of 1↔M, FIG. 2a): strongly enhanced Notch signaling
- luciferase values after short-term treatment immediately prior to the readout (luciferase enzyme): in the range of the DMSO control level
- enhancement of Notch2 receptor driven signaling [2]: enhance signaling derived from different Notch receptor isoforms
- enhancement of N1ICD driven signaling [3]: enhance the signaling cascade taking place downstream of ligand-mediated activation of Notch signaling
- expression of the differentiation marker involucrin at the protein level (SCC13 cells): increased protein expression
- FoB (follicular B-cell) numbers [4]: not affected
- number of splenic MZBs compared to the control [4]: increase; also recorded: double
- IFNγ production and secretion (CD4 T cells): increased
